Measured values from patent US20030198617A1, “Pharmaceutical tryptophan containing dipeptide compositions and methods of use thereof” (priority 1993, published 2003).
Entries after “also recorded” stand apart in the source; their conditions may differ. Like-named read-outs stand apart in the source and are kept apart here.

Experiments:
AIDS = AIDS infected and immunosuppressed individuals; assay type: in vivo, human
[1] = Pyoderma patients (furunculitis, cellulitis, folliculitis); assay type: in vivo, human; settings: IM or intranasally 5 days
Procedure: Patients with pyoderma, including furunculitis, cellulitis, and folliculitis, are treated with Ile-Trp with a control group which is not treated with Ile-Trp. Medications are administered either IM or intranasally for 5 consecutive days. […] Clinical improvement correlate with immunological indices correction. Administration IM, intranasally, or topically as a sterile saline, solution of medication for a period of 5 to 10 days at a concentration of 1 μg/kg body weight.
Medications were administered either IM or intranasally for 5 consecutive days. […] Clinical improvement correlated with immunological indices correction. Administration IM, intranasally, or topically as a sterile saline solution of medication for a period of 5 to 10 days at a concentration of 1 μg/kg body weight.

Psoriasis patients = assay type: in vivo, human; settings: 10 days
Procedure: Patients with psoriasis are treated with Ile-Trp and some patients are used as controls.
All patients had at a least 5 year history of […] treatment.

[2] = Female patients with pelvic inflammatory diseases, cervicitis, vaginitis, abscesses; assay type: in vivo, human
Procedure: Female patients with the various disorders (pelvic inflammatory diseases, cervicitis, vaginitis and various tubo-ovarian and adnexal abscesses) are treated and some patients are used as controls. Ile-Trp is applied IM, intranasally at 100 μg 5 consecutive days or 50 μg intralymphatically for 5 consecutive days in conjunction with conventional therapy. […] The normalization of immune status correlates with clinical improvements.
The normalization of immune status correlated with clinical improvements.

herpetic lesions = experiment: Recurrent herpetic lesions; assay type: in vivo, human; settings: for recurrence of herpetic lesions: IM or intranasally
Herpes Zoster = Herpes Zoster patients, with interferon; assay type: in vivo, human; settings: for clinical effect: 100 μg, 10 days
Procedure: Patients with Herpes Zoster are treated with Ile-Trp in combination with conventional interferon treatment and some control patients with interferon alone. […] There is noted prevention of relapses, and some healing occurred earlier than control groups. Immunological indices correlates with clinical outcome.
There was noted prevention of relapses, and healing occurred on the average 40% earlier than control groups. Immunological indices correlated with clinical outcome.

[3] = Toothpaste containing the dipeptide: dental caries, gingival disease; assay type: in vivo, human
Lymphangitis = assay type: in vivo, human
viral infection = experiment: Acute respiratory disease patients; assay type: in vivo, human
Procedure: Patients with acute respiratory disease, including upper airway diseases, such as colds, are treated with Ile-Trp. […] Secondary infectious complications are diminished, and the duration of the treatment is also diminished.
There was noted a decrease in the specific signs of upper respiratory infections such rhinorrhea, sore throat, fever, muscle aches, headaches, and ear pain. Secondary infectious complications were diminished, and the duration of the treatment was also diminished.

[4] = Sinus disease patients (Examples 14, 63); assay type: in vivo, human; settings: 3-10 days
Excerpt: The decrease of treatment duration up to 1.7 times compared to controls.

[5] = Patients with various allergies; assay type: in vivo, human
[6] = Patients subjected to skin grafting; assay type: in vivo, human
Procedure: Ile-Trp is administered to patients subjected to skin grafting. Ile-Trp is administered IM or intranasally single daily at 50-100 μg for 5 days.
The control group comprised 27 patients. […] In control group the manifestations of rejection were determined in 8 patients.

Wounds of various origin = assay type: in vivo, human
Procedure: Ile-Trp is used in patients with wounds of various origin, type and localization. Ile-Trp is administered IM or topically single daily at 100 μg for 10 days.
The control group comprised 24 patients.

Bone fractures = assay type: in vivo, human
Procedure: Ile-Trp is applied to patients with bone fractures of various origin, type and localization. Ile-Trp is administered intramuscularly or intranasally single daily at […] for 10 days.
The control group comprised 28 patients.

[7] = Deformity and scarring after injuries; assay type: in vivo, human
flu = assay type: in vivo, human; settings: 3 days, with anti-flu vaccination
Toxemia of pregnancy = assay type: in vivo, human
Procedure: Ile-Trp is applied in pregnant women with Toxemia of first and second half of pregnancy. Ile-Trp is administered IM and intranasally at 100 μg daily for 5-10 days. It is observed that the BP normalized, and peripheral edema is reduced with normalization of the blood chemistry profile, and the restoration of initially altered immunologic indices.
The control group comprised 54 patients.

Pyelonephritis = assay type: in vivo, human
Excerpt: The normal course of delivery in those women treated with IM862 was without complications.

tropical malaria = experiment: Relapsing tropical malaria; assay type: in vivo, human
Procedure: Patients are studied who have relapsing forms of tropical malaria, moderate to severe, and severe cases with 21 patients in the control group. Ile-Trp is administered at 100 μg single daily doses Im or intranasally for 5-10 days.
A total of 33 patients were studied with patients who had relapsing forms of tropical malaria, moderate to severe, and severe cases with 21 patients in the control group.

[8] = IM862 100 μg IM or intranasally

Excerpt for Shigella: A total 125 patients infected with Shigella dysentery are examined.
A total 125 patients with 53 patients for control infected with Shigella dysentery were examined.

Ile-Trp
immunologic indices, T-cell functional activity, T4/T8 ratios (AIDS; Ile-Trp, AIDS infected individuals): restoring normal immunologic indices
immunological indices (AIDS; Ile-Trp, immunosuppressed individuals with radiation injuries): excellent restoration of immunological indices
clinical effect ([1]; Ile-Trp): Immunological indices are normalized with disappearance of skin manifestations
clinical effect (Psoriasis patients; Ile-Trp 100 μg IM or intranasally): improvement in most of the patients, and total recovery in some of the patients
clinical effect ([2]; Ile-Trp with conventional therapy): arresting of pain syndrome
recurrence of herpetic lesions (herpetic lesions; Ile-Trp topically): marked reduction of recurrence of herpetic lesions
clinical effect (Herpes Zoster; Ile-Trp with interferon): accelerated regression of foci of herpetic infection
clinical effect ([3]; toothpaste containing Ile-Trp): reduction of gingival disease and reduction in dental caries
clinical effect (Lymphangitis; Ile-Trp 100 μg): controls the advance of lymphangitis
clinical effect (viral infection; Ile-Trp 100 μg 3-7 days): milder course of the viral infection
clinical effect ([4]; Ile-Trp 1 μg/kg): normalization of nasal breathing
clinical effect ([5]; Ile-Trp 1 μg/kg 5-7 days): disappearance of allergic reactions
infectious complications and graft rejection ([6]; Ile-Trp 50-100 μg 5 days): prevents the arising of infections complications and graft rejection
wound healing (Wounds of various origin; Ile-Trp): speeds up; also recorded: accelerates wound healing
consolidation of fractures (Bone fractures; Ile-Trp, 10 days): accelerates essentially
clinical effect ([7]; Ile-Trp IM or intranasally): less deformity and scarring
sickness rate for 12 months (flu; Ile-Trp 50 μg): significant decrease of sickness rate
clinical effect (Toxemia of pregnancy; Ile-Trp 100 μg daily 5-10 days): BP normalized
clinical effect (Pyelonephritis; Ile-Trp 100 μg 5-10 days with conventional therapy): reduction of fever
clinical effect (tropical malaria; Ile-Trp 100 μg 5-10 days): reduction of hepatolineal syndrome
clinical effect (Shigella; Ile-Trp IM 100 μg 10 days): normalization of fever

Glu-Trp [IM862]
immunological indices (AIDS; IM862, immunosuppressed individuals with radiation injuries): excellent restoration of immunological indices
comparison with TPI as cell mediator (AIDS; IM862 vs TPI): far more effective cell mediator
clinical effect ([1]; IM862, 159 patients): Immunological indices were normalized with disappearance of skin manifestations
significant improvement, share of patients (Psoriasis patients; [8]): 60%
total recovery, share of patients (Psoriasis patients; [8]): 33%
improvement, share of patients (Psoriasis patients; IM862 100 μg IM or intranasally, 30 patients): 7%
clinical effect ([2]; IM862 with conventional therapy, 46 patients): arresting of pain syndrome
outbreaks per year after treatment (herpetic lesions; IM862 in combination with interferon, 7-10 outbreaks per year before): less than one outbreak per year
recurrence of herpetic lesions (herpetic lesions; IM862 topically): marked reduction of recurrence of herpetic lesions
clinical effect (Herpes Zoster; IM862 with interferon, 37 patients): accelerated regression of foci of herpetic infection
healing earlier than control groups (Herpes Zoster; IM862 with interferon, on the average): 40%
clinical effect ([3]; toothpaste containing IM862): reduction of gingival disease and reduction in dental caries
clinical effect (Lymphangitis; IM862 100 μg): controls the advance of lymphangitis
clinical effect (viral infection; IM862 100 μg 3-7 days, 186 patients): milder course of the viral infection
decrease of treatment duration compared to controls ([4]; IM862 1 μg/kg): up to 1.7 times
clinical effect ([4]; IM862 1 μg/kg, 51 patients): normalization of nasal breathing
clinical effect ([5]; IM862 1 μg/kg 5-7 days, 29 patients): disappearance of allergic reactions
infectious complications and graft rejection ([6]; IM862 50-100 μg 5 days, all 17 patients): prevented the arising of infections complications and graft rejection
wound healing (Wounds of various origin; IM862): speeded up; also recorded: accelerates wound healing
consolidation of fractures (Bone fractures; IM862, 10 days, 44 patients): accelerated essentially
clinical effect ([7]; IM862 IM or intranasally): less deformity and scarring
sickness rate for 12 months (flu; IM862 50 μg, 268 persons): significant decrease of sickness rate
clinical effect (Toxemia of pregnancy; IM862 100 μg daily 5-10 days, 97 women): BP normalized
clinical effect (Pyelonephritis; IM862 100 μg 5-10 days with conventional therapy, 27 patients): reduction of fever
clinical effect (tropical malaria; IM862 100 μg 5-10 days, 33 patients): reduction of hepatolineal syndrome
clinical effect (Shigella; IM862 IM 100 μg 10 days, 125 patients): normalization of fever
